Source: US8242088B2, “Carrier vectors through an epithelium with tight junctions” (Centre National de la Recherche Scientifique, priority 2000, dated 2012)
No end group written: not given here.

Test system: MDCK (Madin-Darby Canine Kidney) cells
Test: Passage across an epithelium with tight junctions (TRANSWELL system)
Type: in vitro ADME
Settings: for passage into the apical compartment: Example 4: basolateral compartment, 10 μM, 30 minutes at 370° C.
Procedure: The passage of the Penet and NES-Penet peptides across an epithelium with tight junctions was evaluated using the device (TRANSWELL system, CORNING-COSTAR) represented in FIG. 3.
This device comprises two compartments (1, 2) separated by a microporous polyester membrane (3) on which an epithelium (4) consisting of MDCK (Madin-Darby Canine Kidney) cells has been established. The cells are seeded and grow to confluence.
The compartment (1) in contact with the microporous membrane and the basolateral pole of the cells is referred to as the basolateral compartment. The compartment (2), in contact with the apical pole of the cells, is referred to as the apical compartment.
Each of the compartments is filled with medium consisting of the following: Minimum Essential Medium with Earle Salt (MEM), 2 mM glutamine, 2 mM Hepes, pH 7, 5 U/ml penicillin, 5 μg/ml streptomycin, supplemented with a mixture of protease inhibitors.
For each experiment, the integrity of the tight junctions is controlled by measuring the resistance between the two compartments (R>2000Ω/cm^2).
Moreover, the tightness of the epithelium was also verified by adding […] inulin (6.5×10^5 cpm/compartment), either to the apical compartment or to the basolateral compartment, and measuring the radioactivity in the other compartment 180 minutes later. […]
The peptides are precipitated by adding 10% trichloro-acetic acid (TCA), and taken up in boiling Laemmli medium. […] The presence of the Penet-1 or NES-Penet peptides in the starting compartment, in the end compartment, or inside the cells, is detected by revelation with streptavidin-peroxidase as indicated in Example 1 above. […]
At the end of the incubation, the contents of the basolateral compartment and of the apical compartment, and that of the cells, were analyzed as described above in order to detect the presence of the NES-Penet peptide.
Furthermore, the passage of the peptides across an epithelium with tight junctions was evaluated using the device described in Example 2 above. […]

Row | passage into the apical compartment | degradation of the peptide during passage | Molecule
1 | very slight passage | – | RQPKIWFPNRRKPWKK [Pen3P, RQPKIWFPNRRKPWKK, reference compound]
2 | – | not accompanied by any degradation | CC[C@H](C)[C@H](NC(=O)[C@H](CCCCN)NC(=O)[C@@H](NC(=O)[C@H](CCC(N)=O)NC(=O)[C@H](CCCNC(=N)N)NC(=O)[C@H](CCC(=O)O)NC(=O)[C@H](CC(N)=O)NC(=O)[C@H](CC(C)C)NC(=O)CNC(=O)[C@H](CC(C)C)NC(=O)[C@H](CCC(=O)O)NC(=O)[C@H](CCC(N)=O)NC(=O)[C@H](C)NC(=O)[C@H](CC(C)C)NC(=O)[C@H](CO)NC(=O)[C@H](CCC(N)=O)NC(=O)CCCCNC(=O)CCCC[C@@H]1SC[C@@H]2NC(=O)N[C@@H]21)[C@@H](C)CC)C(=O)N[C@@H](Cc1c[nH]c2ccccc12)C(=O)N[C@@H](Cc1ccccc1)C(=O)N[C@@H](CCC(N)=O)C(=O)N[C@@H](CC(N)=O)C(=O)N[C@@H](CCCNC(=N)N)C(=O)N[C@@H](CCCNC(=N)N)C(=O)N[C@@H](CCSC)C(=O)N[C@@H](CCCCN)C(=O)N[C@@H](Cc1c[nH]c2ccccc12)C(=O)N[C@@H](CCCCN)C(=O)N[C@@H](CCCCN)C(=O)O [NES-Penet]
3 | much greater | – | CC[C@H](C)[C@H](NC(=O)[C@H](CCCCN)NC(=O)[C@@H]1CCCN1C(=O)[C@H](CCC(N)=O)NC(=O)[C@H](CCCNC(=N)N)NC(=O)[C@H](CCC(=O)O)NC(=O)[C@H](CC(N)=O)NC(=O)[C@H](CC(C)C)NC(=O)CNC(=O)[C@H](CC(C)C)NC(=O)[C@H](CCC(=O)O)NC(=O)[C@H](CCC(N)=O)NC(=O)[C@H](C)NC(=O)[C@H](CC(C)C)NC(=O)[C@H](CO)NC(=O)[C@H](CCC(N)=O)NC(=O)CCCCNC(=O)CCCC[C@@H]1SC[C@@H]2NC(=O)N[C@@H]21)C(=O)N[C@@H](Cc1c[nH]c2ccccc12)C(=O)N[C@@H](Cc1ccccc1)C(=O)N1CCC[C@H]1C(=O)N[C@@H](CC(N)=O)C(=O)N[C@@H](CCCNC(=N)N)C(=O)N[C@@H](CCCNC(=N)N)C(=O)N[C@@H](CCCCN)C(=O)N1CCC[C@H]1C(=O)N[C@@H](Cc1c[nH]c2ccccc12)C(=O)N[C@@H](CCCCN)C(=O)N[C@@H](CCCCN)C(=O)O [NES-Pen3P]
